In patent US20250221988A1 (Cullgen (Shanghai), Inc., priority 2022, published 2025):
Where two headings read alike, the source gives them in different places.

What was measured:
[1] = system: MV4;11 cells; assay: Cell viability assay (CellTiter-Glo) in MV4;11 cells; format: cell-based; details: read-out: MV4
Summary of the method: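 5000 cells/well in RPMI 1640 or DMEM with 10% FBS, treated with 8- or 12-point 3-fold compound dilutions, with or without gilteritinib (10 nM for MV4;11, 20 nM for MOLM-13). Viability by CellTiter-Glo after three days; IC50 by nonlinear least-squares regression.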

[2] = system: MOLM-13 cells; assay: Cell viability assay (CellTiter-Glo) in MOLM-13 cells; format: cell-based
[3] = Homo sapiens, MV4-11, 72 h, MV4;11 cells, compound alone, three days, 11 IC50
[4] = MV4;11 cells, with 10 nM gilteritinib, three days, 11 IC50 (nM) + 10 nM Gil
[5] = Homo sapiens, 72 h, MOLM-13 cells, compound alone, three days, read-out: MOLM-13 IC50
[6] = MOLM-13 cells, with gilteritinib, three days, read-out: MOLM-13 IC50 (nM) + 10 nM Gil
[7] = Homo sapiens, MV4-11, 72 h, 11 IC50 (nM)
[8] = 11 IC50 (nM) + 10 nM Gil, MV4;11 cells, with 10 nM gilteritinib, three days
[9] = Homo sapiens, MOLM-13, 72 h, read-out: MOLM-13 IC50 (nM)
[10] = read-out: MOLM-13 IC50 (nM) + 10 nM Gil, MOLM-13 cells, with gilteritinib, three days

## O=C1CCC(N2C(=O)c3ccc(NC[C@H]4C[C@H](n5cc(-c6ccc7[nH]ccc7n6)c(C6CC6)n5)C4)cc3C2=O)C(=O)N1 (stereo partly drawn) [GS-720, 5-(((Trans-3-(3-cyclopropyl-4-(1H-pyrrolo[3,2-b]pyridin-5-yl)-1H-pyrazol-1-yl)cyclobutyl)methyl)amino)-2-(2,6-dioxopiperidin-3-yl)isoindoline-1,3-dione]
[1]; [3]
  IC50: 10 to 100 nM
[1]; [4]
  IC50: 10 to 100 nM
[2]; [5]
  IC50: 100 to 1000 nM
[2]; [6]
  IC50: 10 to 100 nM

## O=C1CCC(N2C(=O)c3ccc(NC[C@H]4C[C@H](n5cc(-c6ccc7cc[nH]c7n6)c(C6CC6)n5)C4)cc3C2=O)C(=O)N1 (stereo partly drawn) [GS-721, 5-(((Trans-3-(3-cyclopropyl-4-(1H-pyrrolo[2,3-b]pyridin-6-yl)-1H-pyrazol-1-yl)cyclobutyl)methyl)amino)-2-(2,6-dioxopiperidin-3-yl)isoindoline-1,3-dione]
[1]; [3]
  IC50: < 10 nM
[1]; [4]
  IC50: < 10 nM
[2]; [5]
  IC50: 10 to 100 nM
[2]; [6]
  IC50: < 10 nM

## Cn1ccc2ccc(-c3cn([C@H]4C[C@H](CNc5ccc6c(c5)C(=O)N(C5CCC(=O)NC5=O)C6=O)C4)nc3C3CC3)nc21 (stereo partly drawn) [GS-722, 5-(((trans-3-(3-cyclopropyl-4-(1-methyl-1H-pyrrolo[2,3-b]pyridin-6-yl)-1H-pyrazol-1-yl)cyclobutyl)methyl)amino)-2-(2,6-dioxopiperidin-3-yl)isoindoline-1,3-dione]
[1]; [3]
  IC50: 10 to 100 nM
[1]; [4]
  IC50: < 10 nM
[2]; [5]
  IC50: 10 to 100 nM
[2]; [6]
  IC50: < 10 nM

## Cc1nc(-c2cn(C3CC(F)(CNc4ccc5c(c4)C(=O)N(C4CCC(=O)NC4=O)C5=O)C3)nc2C2CC2)ccc1F (stereo not drawn) [GS-723, 5-(((Trans-3-(3-cyclopropyl-4-(5-fluoro-6-methylpyridin-2-yl)-1H-pyrazol-1-yl)-1-fluorocyclobutyl)methyl)amino)-2-(2,6-dioxopiperidin-3-yl)isoindoline-1,3-dione]
[1]; [3]
  IC50: 100 to 1000 nM
[1]; [4]
  IC50: 10 to 100 nM
[2]; [5]
  IC50: 100 to 1000 nM
[2]; [6]
  IC50: 10 to 100 nM

## O=C1CCC(N2C(=O)c3ccc(NCCC4CC5(C4)CC(n4cc(-c6cnc7ccccc7n6)c(C6CC6)n4)C5)cc3C2=O)C(=O)N1 (stereo not drawn) [GS-724, 5-((2-(6-(3-Cyclopropyl-4-(quinoxalin-2-yl)-1H-pyrazol-1-yl)spiro[3.3]heptan-2-yl)ethyl)amino)-2-(2,6-dioxopiperidin-3-yl)isoindoline-1,3-dione]
[1]; [3]
  IC50: < 10 nM
[1]; [4]
  IC50: < 10 nM
[2]; [5]
  IC50: 10 to 100 nM
[2]; [6]
  IC50: < 10 nM

## O=C1CCC(N2Cc3ccc(CC[C@H]4C[C@H](n5cc(-c6cnc7ccccc7n6)c(C6CC6)n5)C4)cc3C2=O)C(=O)N1 (stereo partly drawn) [GS-725, 3-(6-(2-(Trans-3-(3-cyclopropyl-4-(quinoxalin-2-yl)-1H-pyrazol-1-yl)cyclobutyl)ethyl)-1-oxoisoindolin-2-yl)piperidine-2,6-dione]
[1]; [7]
  IC50: 100 to 1000 nM
[1]; [8]
  IC50: 10 to 100 nM
[2]; [9]
  IC50: > 1000 nM
[2]; [10]
  IC50: 100 to 1000 nM

## O=C1CCC(N2C(=O)c3ccc(NC[C@H]4C[C@H](n5cc6ccccc6n5)C4)cc3C2=O)C(=O)N1 (stereo partly drawn) [GS-727, 5-(((Trans-3-(2H-indazol-2-yl)cyclobutyl)methyl)amino)-2-(2,6-dioxopiperidin-3-yl)isoindoline-1,3-dione]
[1]; [7]
  IC50: > 1000 nM
[1]; [8]
  IC50: 100 to 1000 nM
[2]; [9]
  IC50: > 1000 nM
[2]; [10]
  IC50: 100 to 1000 nM

## O=C1CCC(N2C(=O)c3ccc(NC[C@H]4C[C@H](n5ncc6ccccc65)C4)cc3C2=O)C(=O)N1 (stereo partly drawn) [GS-728, 5-(((Trans-3-(1H-indazol-1-yl)cyclobutyl)methyl)amino)-2-(2,6-dioxopiperidin-3-yl)isoindoline-1,3-dione]
[1]; [3]
  IC50: > 1000 nM
[2]; [5]
  IC50: > 1000 nM
[2]; [6]
  IC50: 10 to 100 nM

## CC(C)n1ncc2ccc(-c3cn([C@H]4C[C@H](CNc5ccc6c(c5)C(=O)N(C5CCC(=O)NC5=O)C6=O)C4)nc3C3CC3)nc21 (stereo partly drawn) [GS-730, 5-(((Trans-3-(3-cyclopropyl-4-(1-isopropyl-1H-pyrazolo[3,4-b]pyridin-6-yl)-1H-pyrazol-1-yl)cyclobutyl)methyl)amino)-2-(2,6-dioxopiperidin-3-yl)isoindoline-1,3-dione]
[1]; [7]
  IC50: 10 to 100 nM
[1]; [8]
  IC50: 10 to 100 nM
[2]; [9]
  IC50: 100 to 1000 nM
[2]; [10]
  IC50: 10 to 100 nM

## Cc1nc(-c2cn([C@H]3C[C@H](CNc4ccc5c(c4)C(=O)N(C4CCC(=O)NC4=O)C5)C3)nc2C2CC2)ccc1F (stereo partly drawn) [GS-732, 3-(6-(((Trans-3-(3-cyclopropyl-4-(5-fluoro-6-methylpyridin-2-yl)-1H-pyrazol-1-yl)cyclobutyl)methyl)amino)-1-oxoisoindolin-2-yl)piperidine-2,6-dione]
[1]; [3]
  IC50: 100 to 1000 nM
[1]; [4]
  IC50: 10 to 100 nM
[2]; [5]
  IC50: > 1000 nM
[2]; [6]
  IC50: 100 to 1000 nM

## O=C1CCC(N2C(=O)c3ccc(NC[C@H]4C[C@H](n5cc(-c6ncc(F)c7[nH]ccc67)c(C6CC6)n5)C4)cc3C2=O)C(=O)N1 (stereo partly drawn) [GS-733, 5-(((Trans-3-(3-cyclopropyl-4-(7-fluoro-1H-pyrrolo[3,2-c]pyridin-4-yl)-1H-pyrazol-1-yl)cyclobutyl)methyl)amino)-2-(2,6-dioxopiperidin-3-yl)isoindoline-1,3-dione]
[1]; [3]
  IC50: < 10 nM
[1]; [4]
  IC50: < 10 nM
[2]; [5]
  IC50: < 10 nM
[2]; [6]
  IC50: < 10 nM

## O=C1CCC(N2C(=O)c3ccc(NC[C@H]4C[C@H](n5cc(Cc6ccccc6)c(C6CC6)n5)C4)cc3C2=O)C(=O)N1 (stereo partly drawn) [GS-735, 5-(((Trans-3-(4-benzyl-3-cyclopropyl-1H-pyrazol-1-yl)cyclobutyl)methyl)amino)-2-(2,6-dioxopiperidin-3-yl)isoindoline-1,3-dione]
[1]; [7]
  IC50: 10 to 100 nM
[1]; [8]
  IC50: < 10 nM
[2]; [9]
  IC50: 10 to 100 nM
[2]; [10]
  IC50: < 10 nM

## O=C1CCC(N2C(=O)c3ccc(NC[C@H]4C[C@H](n5cc(-n6ncc7ccccc76)c(C6CC6)n5)C4)cc3C2=O)C(=O)N1 (stereo partly drawn) [GS-736, 5-(((Trans-3-(3-cyclopropyl-4-(1H-indazol-1-yl)-1H-pyrazol-1-yl)cyclobutyl)methyl)amino)-2-(2,6-dioxopiperidin-3-yl)isoindoline-1,3-dione]
[1]; [7]
  IC50: < 10 nM
[1]; [8]
  IC50: < 10 nM
[2]; [9]
  IC50: 10 to 100 nM
[2]; [10]
  IC50: < 10 nM

## CC(C)n1ccc2ccc(-c3cn([C@H]4C[C@H](CNc5ccc6c(c5)C(=O)N(C5CCC(=O)NC5=O)C6=O)C4)nc3C3CC3)nc21 (stereo partly drawn) [GS-737, 5-(((Trans-3-(3-cyclopropyl-4-(1-isopropyl-1H-pyrrolo[2,3-b]pyridin-6-yl)-1H-pyrazol-1-yl)cyclobutyl)methyl)amino)-2-(2,6-dioxopiperidin-3-yl)isoindoline-1,3-dione]
[1]; [7]
  IC50: 10 to 100 nM
[1]; [8]
  IC50: 10 to 100 nM
[2]; [9]
  IC50: 100 to 1000 nM
[2]; [10]
  IC50: 10 to 100 nM

## O=C1CCC(N2C(=O)c3ccc(NC[C@H]4C[C@H](n5cc(-n6ccc7ccccc76)c(C6CC6)n5)C4)cc3C2=O)C(=O)N1 (stereo partly drawn) [GS-738, 5-(((Trans-3-(3-cyclopropyl-4-(1H-indol-1-yl)-1H-pyrazol-1-yl)cyclobutyl)methyl)amino)-2-(2,6-dioxopiperidin-3-yl)isoindoline-1,3-dione]
[1]; [7]
  IC50: 10 to 100 nM
[1]; [8]
  IC50: 10 to 100 nM
[2]; [9]
  IC50: 100 to 1000 nM
[2]; [10]
  IC50: 10 to 100 nM

## O=C1CCC(N2C(=O)c3ccc(NC[C@H]4C[C@H](n5cc(Nc6ccccc6)c(C6CC6)n5)C4)cc3C2=O)C(=O)N1 (stereo partly drawn) [GS-739, 5-(((Trans-3-(3-Cyclopropyl-4-(phenylamino)-1H-pyrazol-1-yl)cyclobutyl)methyl)amino)-2-(2,6-dioxopiperidin-3-yl)isoindoline-1,3-dione]
[1]; [7]
  IC50: 10 to 100 nM
[1]; [8]
  IC50: < 10 nM
[2]; [9]
  IC50: 10 to 100 nM
[2]; [10]
  IC50: < 10 nM
